Results as given in patent publication US9328369B2, “Process for production of useful substance, and surfactant for use in the process” (priority 2009, dated 2016).

How the values were obtained:
Escherichia coli(δ) [1] = assay: Production by secretion in microbial culture system, cellulase expressing strain (Table 5); format: cell-based; set-up: key to Turbidity: (measured turbidity of diluted culture − blank) × dilution rate; conditions: for Dried cell density: obtained from turbidity; for Quantitative value of produced recombinant protein: SDS-PAGE
Description: A bglC gene of Bacillus licheniformis was amplified by the PCR method using primers 9 and 10 (Table 4). After being treated with restriction enzymes NcoI and BamHI, a PCR amplified fragment was bound to an NcoI restriction enzyme site and a BamHI restriction enzyme site of a pET-22b plasmid (product of Novagen). Then, the plasmid was transformed into a BL21 (DE3) Escherichia coli strain (product of Novagen) to form Escherichia coli […] that expresses cellulase.
Overnight cultures (1 ml) of Escherichia coli (δ) obtained in Production Example 4 and Escherichia coli (ε) obtained in Production Example 5 were respectively prepared as Comparative Example 2 and Comparative Example 4. An amount of 0.5 ml of each was inoculated in 5 ml of an LB culture solution (containing 100 mg/L of ampicillin) and was shake-cultured at 30° C. for 3 hours. In this manner, pre-culture solutions were prepared. The pre-culture solutions were each inoculated in 50 mL of a culture solution (1.2 g of yeast extract (Nihon Pharmaceutical Co., Ltd.), 0.6 g of polypeptone (Nihon Pharmaceutical Co., Ltd.), 0.47 g of dipotassium phosphate, 0.11 g of monopotassium phosphate, 0.35 g of ammonium sulfate, 0.66 g of disodium phosphate 12-hydrate, 0.02 g of sodium citrate dihydrate, 0.2 g of glycerol, 1.5 g of lactalbumin hydrolysate, 0.3 g of a defoaming agent (Shin-Etsu Chemical Co., Ltd., “KM-70”), 1 mM magnesium sulfate, trace metal solution (18.9 μg of calcium chloride, 500 μg of iron chloride (III), 9.0 μg of zinc sulfate heptahydrate, 5.1 μg of copper sulfate, 6.7 μg of manganese chloride tetrahydrate, 4.9 μg of cobalt chloride, 200 μg of ethylene-diamine-tetraacetic acid tetrasodium salt), 100 mg/L ampicillin). Culturing was initiated with use of a microbial culture system (ABLE Corporation, product name “BioJr. 8”), while the pH value and the temperature were maintained at 6.8 and 30° C. After the culturing was initiated, 0.15 mL of 1M IPTG was added. After 14 hours from the initiation of culturing, instillation of a glycerin/protein solution (50% of glycerin, 50 g/L of lactalbumin hydrolysate, a 33 g/L defoaming agent (Shin-Etsu Chemical Co., Ltd., “KM-70”), 100 mg/L ampicillin) was started. The culturing was terminated after 48 hours from the initiation and the culture solution was recovered. The whole protein in the culture solution was analyzed by SDS-PAGE. Based on the obtained amount of the protein band, the recombinant protein was quantified.
The dried cell density at the termination of the culturing was determined by the following processes (1) to (5):
The dried cell density was determined by applying the measuring results in the process (5) and the process (1) and the volume (L) of the culture solution used in the process (2) to the following formula: Dried cell density (g/L)=([measuring result in process (5)]−[measuring result in process (1)])/0.1.
Performance of this processes for several times clarified the proportional relationship between the turbidity of the culture solution and the dried cell density. Therefore, the dried cell density was obtained from the measured turbidity in each of Comparative Examples 2 to 4 and Examples 2 to 14.
The turbidity of a culture solution that is same as the culture solution used in the measurement of the dried cell density was measured using a turbidimeter (Shimadzu Corporation, UV-1700) and 1 ml of quarts cell.
For measurement, the culture solution was diluted in saline to have an appropriate absorbance. The absorbance of the same culture solution (but not containing bacteria) diluted at the same dilution as above was set as a blank. The turbidity of the culture solution was calculated by using the following formula: Turbidity of culture solution=[(measured turbidity of diluted culture solution)−(measured turbidity of blank)]×dilution rate.
The dried cell density and the turbidity of the culture solution were plotted to construct a graph in FIG. 3. […]

Escherichia coli(δ) [2] = assay: as above; format: cell-based; conditions: SDS-PAGE
[3] = Comparative Example 3, surfactant 1 wt %, added earlier than in Example 2
[4] = Examples 2-11, surfactant 1 wt %, at termination of culturing
[5] = Examples 2-11, surfactant 1 wt %, culturing terminated after 48 hours
[6] = Examples 2-11, surfactant 1 wt %, supernatant of culture solution
[7] = Example 13, surfactant 0.1 wt %

Row | Compound | Turbidity (Escherichia coli(δ) [1]; [3]) | Dried cell density (Escherichia coli(δ) [1]; [3]) [g/L] | Quantitative value of produced recombinant protein (Escherichia coli(δ) [1]; Comparative Example 3, surfactant 1 wt %, added earlier than in Example 2, whole protein in culture solution) [g/L] | Dried cell density (Escherichia coli(δ) [1]; [4]) [g/L] | Turbidity (Escherichia coli(δ) [1]; [5]) | Quantitative value of produced recombinant protein (Escherichia coli(δ) [1]; [6]) [g/L] | Quantitative value of produced recombinant protein (Escherichia coli(δ) [2]; [6]) [g/L] | Quantitative value of produced recombinant protein (Escherichia coli(δ) [2]; Example 13, surfactant 0.1 wt %, supernatant) [g/L] | Quantitative value of produced recombinant protein (Escherichia coli(δ) [2]; Example 14, surfactant 5 wt %, supernatant) [g/L] | Turbidity (Escherichia coli(δ) [1]; [7]) | Dried cell density (Escherichia coli(δ) [1]; [7]) [g/L] | Turbidity (Escherichia coli(δ) [1]; Example 14, surfactant 5 wt %) | Dried cell density (Escherichia coli(δ) [1]; Example 14, surfactant 5 wt %) [g/L]
1 | CCCCCCCCCCCCCCCC[N+](C)(C)C.[Cl-] [A-14, Cetyl trimethyl ammonium chloride] | 1.07 | 0.3 | <0.05 | 1.52 | 5.43 | 0.06 |  |  |  |  |  |  | 
2 | Polyoxyethylene(3 mol)tridecyl ether sodium acetate [A-1] |  |  |  | 12.1 | 43.2 |  | 1.01 |  |  |  |  |  | 
3 | Sodium cocaminopropionate [A-7] |  |  |  | 22.1 | 78.9 |  | 2.24 |  |  |  |  |  | 
4 | Cured palm oil fatty acid amidopropyl dimethyl aminoacetate betaine [A-6] |  |  |  | 19.7 | 70.3 |  | 2.35 | 1.82 | 1.53 | 75.2 | 21.1 | 52.1 | 14.6
